Assay results: ChEMBL document CHEMBL4052739, “Discovery of a biarylamide series of potent, state-dependent NaV1.7 inhibitors” (Bioorg Med Chem Lett, 2017)
Converted amounts (≈) assume the structure as drawn.

Legend:
P-gp = assay: Apparent permeability in MDCK cells harboring Pgp; format: ADME, cell-based, Canis lupus familiaris; details: dog, MDCK-MDR1
Plasma [1] = assay: Drug uptake in plasma of formalin-induced nociception Sprague-Dawley rat model at 100 mg/kg, po; format: ADME, organism-based; details: in vivo
Plasma [2] = assay: Drug uptake in plasma of formalin-induced nociception Sprague-Dawley rat model at 30 mg/kg, po; format: ADME, organism-based; details: in vivo
[3] = Aqueous solubility of compound in PBS buffer; format: physicochemical
Plasma [4] = assay: Unbound drug uptake in plasma of Sprague-Dawley rat at 30 mg/kg, po; format: ADME, organism-based; details: in vivo
[5] = Oral bioavailability in rat at 100 mg/kg administered via gavage by LC-MS/MS analysis; format: ADME, organism-based; details: in vivo
[6] = Volume of distribution at steady state in rat at 0.5 mg/kg, iv by LC-MS/MS analysis; format: ADME, organism-based; details: in vivo, read-out: Vdss
Plasma [7] = assay: Unbound drug uptake in plasma of Sprague-Dawley rat at 300 mg/kg, po; format: ADME, organism-based; details: in vivo
[8] = Ratio of drug uptake in brain to plasma of formalin-induced nociception Sprague-Dawley rat model at 100 mg/kg, po; format: ADME, organism-based; details: read-out: BPR
Plasma [9] = assay: Drug uptake in Sprague-Dawley rat plasma at 30 mg/kg, po; format: ADME, organism-based; details: in vivo
Plasma [10] = assay: Unbound drug uptake in plasma of Sprague-Dawley rat at 100 mg/kg, po; format: ADME, organism-based; details: in vivo
Plasma [11] = assay: Drug uptake in plasma of Sprague-Dawley rat at 300 mg/kg, po; format: ADME, organism-based; details: in vivo
Plasma [12] = assay: Unbound drug uptake in plasma of formalin-induced nociception Sprague-Dawley rat model at 30 mg/kg, po; format: ADME, organism-based; details: in vivo
Plasma [13] = assay: Drug uptake in plasma of Sprague-Dawley rat at 100 mg/kg, po; format: ADME, organism-based; details: in vivo
Plasma [14] = assay: Unbound drug uptake in plasma of formalin-induced nociception Sprague-Dawley rat model at 100 mg/kg, po; format: ADME, organism-based; details: in vivo
[15] = Oral bioavailability in rat at 10 mg/kg administered via gavage by LC-MS/MS analysis; format: ADME, organism-based; details: in vivo
[16] = Oral bioavailability in rat at 40 mg/kg administered via gavage by LC-MS/MS analysis; format: ADME, organism-based; details: in vivo
[17] = Oral bioavailability in rat at 30 mg/kg administered via gavage by LC-MS/MS analysis; format: ADME, organism-based; details: in vivo

SMILES	Papp (P-gp) [×10⁻⁶ cm/s]	solubility [3] [µM]	Vd [6] [L/kg]	bioavailability [15] [%]	other results
Nc1cccnc1-c1cccc(C(=O)Nc2cccc(C(F)(F)F)c2-c2cccnc2)c1		470 (≈ 204 µg/mL)	1.29		concentration (Plasma [1]): 1570 nM; concentration (Plasma [2]): 342 nM; Cp(f) (Plasma [4]): 98 nM; bioavailability [5]: 73%; Cp(f) (Plasma [7]): 714 nM; Kp [8]: 0.36; concentration (Plasma [9]): 549 nM; Cp(f) (Plasma [10]): 322 nM; concentration (Plasma [11]): 3990 nM; Cp(f) (Plasma [12]): 61 nM; concentration (Plasma [13]): 1800 nM; Cp(f) (Plasma [14]): 281 nM
O=C(Nc1cccc(C(F)(F)F)c1-c1cccnc1)c1cccc(-c2ncccc2Cl)c1		10 (≈ 4.54 µg/mL)	1.27	58	
O=C(Nc1cccc(C(F)(F)F)c1-c1cccnc1)c1cccc(-c2ncccc2OC(F)F)c1	31	56 (≈ 27.2 µg/mL)	3		bioavailability [17]: 92%

Continued, in another order:

Papp (P-gp) [×10⁻⁶ cm/s]	solubility [3] [µM]	Vd [6] [L/kg]	bioavailability [15] [%]	SMILES	other results
37				O=C(COc1cccc2cccnc12)Nc1ccccc1N1CCOCC1	
	22 (≈ 10.7 µg/mL)	0.57		O=C(Nc1cccc(C(F)(F)F)c1-c1cccnc1)c1cccc(-c2ncccc2C(F)(F)F)c1	bioavailability [16]: 26%
	12 (≈ 5.03 µg/mL)	1.4	54	O=C(Nc1cccc(C(F)(F)F)c1-c1cccnc1)c1cccc(-c2ccccn2)c1	
